Results on 6 compounds are retold here after patent publication US10800766B2, “Quinoline alkenes as cytoprotective agents” (priority 2015, dated 2020).

Each structure is given as a SMILES string.

In one experiment the test system is CSM14.1 neuronal cells. The experiment can be described thus: Cell survival assay (thapsigargin-induced cell death, CELLTITER-GLO luminescence). Format: cell-based. Particulars: CSM14.1 cells, compound 2 hrs before about 15 μM thapsigargin, overnight (about 16 to 24 hrs), cell viability. The procedure: CSM14.1 neuronal cells were maintained in Complete Medium at 32° C.; wherein the Complete Medium contained Dulbecco's modified eagle medium (DMEM) with 10% fetal bovine serum (FSB), 1% L-glutamine, 100 IU/mL penicillin, and 100 μg/mL streptomycin. The cells were recovered from cultures by trypsinization and then seeded in 384 well plates (Greiner #781098) at a concentration of 1,000 cells/well in 20 μL of DMEM Assay Medium, wherein the DMEM Assay Medium contained 2% FBS, 100 IU/mL penicillin, and 100 μg/mL streptomycin. Seeding was performed using a MultiDrop Combi reagent broadcaster. The plates were incubated overnight at 32° C. A test compound was prepared by 2-fold serial dilution in 100% DMSO using a BIOMEK® 2000 liquid handler (Beckman Coulter). A dose-response curve containing 10 concentrations of the test compound was obtained. Using a BIOMEK® FX liquid handler (Beckman Coulter), 2.5 μL of the test compound was transferred from the 100% DMSO serial dilution plate to an intermediate plate containing 47.5 μL of DMEM Assay Medium containing 2% FBS, 100 IU/mL penicillin, and 100 μg/mL streptomycin and mixed. To reduce or eliminate the interference from the compound's precipitation, 6 μL of the diluted compound was immediately transferred to the assay plate to achieve a high compound concentration of 100 μM in 99% DMEM Assay Medium and 1% DMSO. After the assay plates were incubated for 2 hrs, 4 μL of 112.5 μM thapsigargin (TG) (DMSO stock diluted into Assay TC Medium) was dispensed into each testing well with a MultiDrop Combi reagent broadcaster for a final concentration of about 15 μM TG. The tissue culture media (4 μL) containing vehicle only was transferred manually to each control cell using a 16 channel electronic pipette. After the plates were incubated overnight (about 16 to 24 hrs), CELLTITER-GLO® (Promega) (16 μL) was added to all wells and luminescence was measured. High luminescence indicates cell survival. The biological results are summarized in Table 1 where A represents a cell viability EC50 less than 1 μM and B represents a value greater than 1 μM and less than 10 μM.

In experiment [1] the test system is Human embryonic kidney (HEK293) cells; Mouse neuroblastoma (N2a) cells. The experiment can be described thus: Cell rescue assay: protection against thapsigargin (TG)-induced cell-death (ALAMARBLUE). As to conditions: compound 20 μM, 2 hrs before thapsigargin (15 μM for HEK293 cells, 1 μM for N2a cells), 24 hrs; viability as % RFU compared to control. It is filed as cell-based. The procedure:
Protection against Thapsigargin (TG)-induced Cell-death. Human embryonic kidney (HEK293) cells were grown in Dulbecco's Modified Eagle's Medium (DMEM) with 10% FBS and 1% antibiotic antimycotic solution (ABAM). Mouse neuroblastoma (N2a) cells were grown in 1:1 DMEM:OPTI-MEM® with 5% FBS and 1% ABAM. All cells were grown in 10% CO2 in a humidified environment of the incubator. Cells grown in 96-well plates were exposed to a test compound (20 μM) for 2 hrs before addition of thapsigargin (15 μM for HEK293 cells and 1 μM for N2a cells) to induce ER stress. After incubation in cell-culture incubator for 24 hrs, ALAMARBLUE® regent (10% v/v) was added to the wells. Fluorescence reading was taken 2 hrs after the addition of the ALAMARBLUE® regent. Cell-viability was calculated as a percentage of relative fluorescence unit (RFU) compared to control. […] The biological results are summarized in Table 2, where each compound was tested at 20 μM and where A represents a viability greater than 50%, B represents a viability greater than 10% and less than 50%, C represents a value below 10%.

The test system of another experiment is Human SH-SY5Y cells. Nature of the experiment: Cell rescue assay: protection against β-amyloid-induced cell toxicity. Format: cell-based. Particulars: 7.5 uM compound, AB1-42 at 10 uM, 4 days, OD at 490 nm. The procedure: Protection against β-amyloid-induced cell toxicity. Chonpathompikunlert et al. Eu. J. Pharmacol. 2011, 650, 544-549. Human SH-SY5Y cells are suspended in media containing 2% FBS and 2× Gentamicin. Transfer 100 ul/well culture to 96-well plate (20,000 cells/well; passage #5) and incubate overnight. Prepare compound samples at 30 uM. Add 50 ul of the samples to the cells [[…]] and incubate 3 hours. Make stock of 40 uM AB1-42 peptide in assay media. Transfer 50 ul/well to cells/compounds in assay plate. The final assay volume is 200 ul/well, containing 2% FBS, 2× Gentamicin, 7.5 uM compound and AB1-42 at 10 uM. Incubate for 4 days then add 20 ul of Promega Substrate Cell Titer 96 Aqueous One Solution Reagent to each well. Incubate 37° C. and read OD at 490 nm. The results are summarized in Table 3, where A represents a value greater than 50% cell rescue, B represents a value greater than 10% and less than 50% cell rescue, and C represents a value greater than 1% and less than 10% cell rescue.

Experiment [2] concerns the target T1, SERCA (microsomal preparations from HEK 293 cells) (Homo sapiens, UniProt P16615).
T1 construct: endogenous in cells; host or cells: HEK 293 cells (microsomal preparation)
The experiment can be described thus: Ca-ATPase assay (NADH-linked, enzyme-coupled ATPase assay). It is filed as biochemical. As to conditions: ATP hydrolysis rate over a range of calcium concentrations, Vmax by fit to Hill function, relative to controls. The procedure:
A Ca-ATPase assay was performed using microsomal preparations from HEK 293 cells at a series of calcium concentrations corresponding to the physiological range, relative to controls. The ATP hydrolysis rate was measured over a range of calcium concentrations in the presence of test compounds using an NADH-linked, enzyme-coupled ATPase assay adapted for 96-well microplates, with Vmax determined by fitting the ATPase calcium-dependence to the Hill function. Each well contained 2 μg or 7 μg of SR vesicles (optimized for skeletal or cardiac SR, respectively), 50 mM MOPS (pH 7.0), 100 mM KCl, 5 mM MgCl2, 1 mM EGTA, 0.2 mM NADH, 1 mM phosphoenol pyruvate, 5 IU pyruvate kinase, 5 IU lactate dehydrogenase, and 3.5 μg/mL A23187 (a calcium ionophore). CaCl2 was added to set free [Ca^2+] to the specific values. The assay was started upon addition of ATP at a final concentration of 5 mM, and read in a SpectraMax Plus microplate spectrophotometer. The results are summarized in Table 4, where A represents an increase in SERCA Vmax greater than 50% and B represents a value greater than 10% and less than 50%.

In the next experiment the test system is Ob/ob mice. Nature of the experiment: Effect of a SERCA agonist on the level of blood glucose. Particulars: 50 mg/kg i.p. once a day for 5 days, fasting glucose at baseline and 4 days after administration. It is filed as in vivo, mouse. The procedure: Ob/ob mice (10 weeks old, n=7) were intraperitoneally (i.p.) injected with 100 μL of a solution containing 0 (vehicle) or 50 mg/kg of a test compound once a day for a total of 5 days. Fasting glucose was measured at baseline and 4 days after the administration of the test compound. Glucose levels were measured in blood samples drawn from the tail vein using a handheld glucose sensor. Compound effects on blood glucose are shown in Table 5 where A represents a 10-20% reduction in blood glucose, B represents a 21-30% reduction in blood glucose, and C represents a greater than 30% reduction in blood glucose levels.

T1 sequence (P16615 whole entry): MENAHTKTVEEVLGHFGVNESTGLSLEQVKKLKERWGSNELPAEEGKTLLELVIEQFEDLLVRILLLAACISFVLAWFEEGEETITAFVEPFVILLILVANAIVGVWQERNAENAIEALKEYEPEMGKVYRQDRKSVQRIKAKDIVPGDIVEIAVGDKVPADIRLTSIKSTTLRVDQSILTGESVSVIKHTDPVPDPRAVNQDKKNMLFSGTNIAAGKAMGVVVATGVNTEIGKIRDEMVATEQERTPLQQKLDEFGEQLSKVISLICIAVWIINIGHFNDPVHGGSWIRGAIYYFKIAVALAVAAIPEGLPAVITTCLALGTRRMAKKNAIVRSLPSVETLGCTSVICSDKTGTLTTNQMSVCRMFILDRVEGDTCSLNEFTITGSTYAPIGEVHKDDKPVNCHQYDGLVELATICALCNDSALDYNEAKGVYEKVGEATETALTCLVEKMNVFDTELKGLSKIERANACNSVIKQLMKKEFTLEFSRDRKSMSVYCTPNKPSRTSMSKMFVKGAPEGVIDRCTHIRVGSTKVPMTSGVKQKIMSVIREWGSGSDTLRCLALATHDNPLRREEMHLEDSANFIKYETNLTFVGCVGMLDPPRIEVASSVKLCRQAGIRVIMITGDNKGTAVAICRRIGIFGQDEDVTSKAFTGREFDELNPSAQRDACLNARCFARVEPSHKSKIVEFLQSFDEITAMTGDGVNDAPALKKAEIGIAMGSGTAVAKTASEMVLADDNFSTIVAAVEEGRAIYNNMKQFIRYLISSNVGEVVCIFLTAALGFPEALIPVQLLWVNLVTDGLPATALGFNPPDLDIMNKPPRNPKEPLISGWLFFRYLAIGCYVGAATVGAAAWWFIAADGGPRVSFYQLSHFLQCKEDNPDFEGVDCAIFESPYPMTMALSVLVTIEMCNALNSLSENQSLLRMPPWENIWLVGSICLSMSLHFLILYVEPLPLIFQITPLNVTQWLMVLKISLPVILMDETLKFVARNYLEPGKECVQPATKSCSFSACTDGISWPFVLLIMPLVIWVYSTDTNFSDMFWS

As usually defined, the EC50 is the concentration giving half of the maximal effect. Read a low EC50 as an effect from little substance. As for `Cc1ccc2cccc(/C=C/c3ccc(OC(C)C)cc3)c2n1` [A1, (E)-8-(4-Isopropoxystyryl)-2-methylquinoline], in the experiment on CSM14.1 neuronal cells, the EC50 is less than 1000 nM. Further, the “Cell Survival %” value in experiment [1] is “A (A represents a viability greater than 50%)”. For the same compound, the “Cell Survival % (cell rescue)” value in the experiment with Human SH-SY5Y cells is listed as “A (A represents a value greater than 50% cell rescue)”. In experiment [2], the “SERCA Vmax Increase” value is recorded as “A (A represents an increase in SERCA Vmax greater than 50%)”. In addition, in the experiment with Ob/ob mice, the Glucose level reduction entry is listed as “C (C represents a greater than 30% reduction in blood glucose levels)”.

`Cc1ccc2cccc(/C=C/c3cc(Br)cs3)c2n1` [A2, (E)-8-(2-(4-Bromothiophen-2-yl)vinyl)-2-methylquinoline] displayed an EC50 in the experiment on CSM14.1 neuronal cells of less than 1000 nM. Further, the “Cell Survival %” value in experiment [1] is listed as “A (A represents a viability greater than 50%)”. In the experiment with Human SH-SY5Y cells, the “Cell Survival % (cell rescue)” value is “B (B represents a value greater than 10% and less than 50% cell rescue)”. Further, in experiment [2], the “SERCA Vmax Increase” value was “A (A represents an increase in SERCA Vmax greater than 50%)”. Further, in the experiment on Ob/ob mice, the Glucose level reduction entry is “B (B represents a 21-30% reduction in blood glucose)”.

In the experiment with CSM14.1 neuronal cells, `Cc1ccc2cccc(/C=C/c3ccc(Br)s3)c2n1` [A3, (E)-8-(2-(5-Bromothiophen-2-yl)vinyl)-2-methylquinoline] registered an EC50 of 1000 to 10000 nM. Moreover, in experiment [1], the “Cell Survival %” value is “B (B represents a viability greater than 10% and less than 50%)”. For the same compound, in the experiment with Human SH-SY5Y cells, the “Cell Survival % (cell rescue)” value was “C (C represents a value greater than 1% and less than 10% cell rescue)”. In experiment [2], the “SERCA Vmax Increase” value was “A (A represents an increase in SERCA Vmax greater than 50%)”. Further, the Glucose level reduction entry in the experiment on Ob/ob mice is “B (B represents a 21-30% reduction in blood glucose)”.

Compound `Cc1ccc2cccc(/C=C/c3ccc(Cl)cc3)c2n1` [A4, (E)-8-(4-Chlorostyryl)-2-methylquinoline] registered an EC50 in the experiment on CSM14.1 neuronal cells of less than 1000 nM. In addition, the “Cell Survival %” value in experiment [1] is recorded as “C (C represents a value below 10%)”. For the same compound, the “Cell Survival % (cell rescue)” value with Human SH-SY5Y cells was “B (B represents a value greater than 10% and less than 50% cell rescue)”. Also, the “SERCA Vmax Increase” value in experiment [2] is “B (B represents a value greater than 10% and less than 50%)”. In the experiment with Ob/ob mice, the Glucose level reduction entry is reported as “A (A represents a 10-20% reduction in blood glucose)”.

Turning to `Cc1ccc2cccc(/C=C/c3cccc(C(F)(F)F)c3)c2n1` [A5, (E)-8-(3-(Trifluoromethyl)styryl)-2-methylquinoline], the EC50 in the experiment with CSM14.1 neuronal cells lay within 1000 to 10000 nM. The “Cell Survival %” value in experiment [1] is “B (B represents a viability greater than 10% and less than 50%)”. For the same compound, the “Cell Survival % (cell rescue)” value in the experiment on Human SH-SY5Y cells is “B (B represents a value greater than 10% and less than 50% cell rescue)”. In experiment [2], the “SERCA Vmax Increase” value was “A (A represents an increase in SERCA Vmax greater than 50%)”. The Glucose level reduction entry in the experiment on Ob/ob mice is given as “B (B represents a 21-30% reduction in blood glucose)”.

As for `Cc1ccc2cccc(/C=C/c3cccc(F)c3)c2n1` [A6, (E)-8-(3-Fluorostyryl)-2-methylquinoline], the EC50 with CSM14.1 neuronal cells lay in the range of 1000 to 10000 nM. For the same compound, the “Cell Survival %” value in experiment [1] is “B (B represents a viability greater than 10% and less than 50%)”. In addition, the “Cell Survival % (cell rescue)” value in the experiment with Human SH-SY5Y cells is listed as “A (A represents a value greater than 50% cell rescue)”. Moreover, the “SERCA Vmax Increase” value in experiment [2] is “B (B represents a value greater than 10% and less than 50%)”. Also, the Glucose level reduction result in the experiment on Ob/ob mice is “A (A represents a 10-20% reduction in blood glucose)”.
